# Experiments:
# guinea pig trachea = experiment: Passive Schultz-Dale reaction (relaxation of ovalbumin-induced contraction of passively sensitized trachea); set-up: species or system male Hartley guinea pigs; settings: Cavia porcellus; concentration causing 50% relaxation; ovalbumin 1 μg/ml, cumulative addition; isolated trachea, 37° C.
# Method: Rabbit anti-OA serum prepared in advance by the method of Kohda, et al. [Folia Pharmacol. Japan, Vol. 66, p. 237 (1970)], was intraperitoneally administered to male Hartley guinea pigs weighing 350-500 g for passive sensitization, and 24 hours later tracheas of the animals were removed, and used for the following test. The tracheas were cut into zig-zag strips by the method of Emmerson and Mackay [J. Pharm. Pharmacol., Vol. 31, p.798 (1979)], were suspended in Krebs-Hensleit solution at 37° C. under aeration of a gas mixture of 95% oxygen and 5% carbon dioxide, and equilibrated for about 1 hour. The antigen, ovalbumin, was added to a bath (final concentration; 1 μg/ml). The contraction was recorded using an isotonic transducers (TD-112S; Nihon Koden Kogyo Co.) connected to a recorder (TYPE 3066; Yokogawa Hokushin Electric). Following the contraction curves reached a plateau, a test compound was cumulatively added in order to calculate the concentration causing 50% relaxation (IC50) which was determined from least-squares regression analysis.
# [1] = system: plaque-forming cells (PFC); experiment: Inhibiting effect on plaque-forming cells (PFC); assay type: cell-based, Balb/c strain male mice; settings: 120 h; concentration: 10^-5 M; mouse spleen cells, 5 days culture; read-out: PFC inhibition rate (%)
# From the text: The method devised by Jerne, et al. [Science, Vol. 140, p.405 (1963)] was followed while referring to the method of Yamamoto, et al. [Drugs Exptl. Clin. Res., Vol. 8, p.5 (1982)]. That is, Balb/c strain male mice (7-week-old/SLC) were sensitized with 1×10^8 sheep erythrocytes (manufactured by Bio Test Research Institute), and the spleen was extirpated on the 6th or 7th day. The erythrocytes were removed using ACT solution [Tris (hydroxymethyl) aminomethane-NH4 Cl solution] from the spleen cells, and were washed with RPMI-1640 medium (manufactured by Nissui Seiyaku Co.) three times. Suspensions of the obtained cells (1×10^7) and the sheep erythrocytes (5×10^6) were suspended with RPMI-1640 medium containing the test compound, 2-mercaptoethanol (5×10^-5 M), 10% bovine fetal serum (manufactured by Gibco Co.), streptomycin and penicillin. The obtained cell suspension was distributed into a 24-well microculture plate, and cultured in a carbon dioxide gas incubator at 37° C. for 5 days.
# After the completion of culturing, the cells were transferred to a plastic test tube. They are centrifuged at 2000 rpm and the supernatant was removed. Then, the cells were further suspended in 1 ml of RPMI-1640. The cell suspension was charged, together with the sheep erythrocytes and the guinea pig complements, into a Cunningham chamber (manufactured by Takahashi Giken Co.), by the method of Cunningham, et al. [Immunology, Vol. 14, p.599 (1968)]. The cells were incubated at 37° C. for 1-2 hours, and then a direct PFC count was determined.
SMILES,IC50 (guinea pig trachea) [µM],inhibition at 10 µM [1] [%]
"CCCCn1c(=O)c2c(ncn2C)c2ccsc21 [Compound 32, 5-n-butyl-3-methylthieno [2,3-b]-3H-imidazo [4,5-d]pyridine-4 (5H)-one]",0.854,16.5
"CCCCn1c(=O)c2[nH]cnc2c2ccsc21 [Compound 31, 5-n-butylthieno [2,3-b]-3H-imidazo [4,5-d]pyridine-4 (5H) one]",0.416,-10.9
"CCCCn1c(=O)c2ncn(Cc3ccccc3)c2c2ccsc21 [Compound 35, 1-benzyl-5-n-butylthieno [2,3-b]-1H-imidazo [4,5-d]pyridine-4 (5H)-one]",6.06,-3.8
"CCCn1c(=O)c2ncn(Cc3ccccc3)c2c2ccsc21 [Compound 39, 1-benzyl-5-n-propylthieno [2,3-b]-1H-imidazo [4,5-d]pyridine-4 (5H)-one]",2.39,–
"CCCn1c(=O)c2c(ncn2C)c2sccc21 [Compound 12, 3-methyl-5-n-propylthieno [3,2-b]-3H-imidazo [4,5-d]pyridine-4(5H)-one]",2.95,60.4
"CCCn1c(=O)c2ncn(C)c2c2sccc21 [Compound 14, 1-methyl-5-n-propylthieno [3,2-b]-1H-imidazo [4,5-d]pyridine-4 (5H)-one]",6.56,–
"CCn1c(=O)c2ncn(Cc3ccccc3)c2c2sccc21 [Compound 20, 1-benzyl-5-ethylthieno [3,2-b]-1H-imidazo [4,5-d]pyridine-4 (5H)-one]",3.41,–
"CCCCn1c(=O)c2c(ncn2Cc2ccccc2)c2ccsc21 [Compound 33, 3-benzyl-5-n-butylthieno [2,3-b]-3H-imidazo [4,5-d]pyridine-4 (5H)-one]",36.9,94.8
"CCCCn1c(=O)c2c(ncn2Cc2ccccc2)c2sccc21 [Compound 3, 3-benzyl-5-n-butylthieno [3,2-b]-3H-imidazo [4,5-d]pyridine-4 (5H)-one]",–,92.4
"CCn1c(=O)c2ncn(C)c2c2sccc21 [Compound 19, 5-ethyl-1-methylthieno [3,2-b]-1H-imidazo [4,5-d]pyridine-4 (5H)-one]",9.98,–
"CCCCn1c(=O)c2ncn(C)c2c2ccsc21 [Compound 34, 5-n-butyl-1-methylthieno [2,3-b]-1H-imidazo [4,5-d]pyridine-4 (5H)-one]",8.98,-16.5
"CCn1c(=O)c2[nH]cnc2c2sccc21 [Compound 16, 5-ethylthieno[3,2-b]-3H-imidazo[4,5-d]pyridine-4(5H)one]",0.657,83.1
"CCCCn1c(=O)c2[nH]cnc2c2sccc21 [Compound 1, 5-n-butylthieno[3,2-b]-3H-imidazo[4,5-d]pyridine-4(5H)-one]",4.63,39.3
"CC(C)n1c(=O)c2[nH]cnc2c2sccc21 [Compound 6, 5-isopropylthieno [3,2-b]-3H-imidazo [4,5-d]pyridine-4 (5H)-one]",2.67,8.8
"CCCCn1c(=O)c2c(ncn2C)c2sccc21 [Compound 2, 5-n-butyl-3-methylthieno[3,2-b]-3H-imidazo[4,5-d]pyridine-4(5H)-one]",12.2,43.3
"CCCn1c(=O)c2[nH]cnc2c2sccc21 [Compound 11, 5-n-propylthieno [3,2-b]-3H-imidazo [4,5-d]pyridine-4(5H)-one]",0.922,–
"CCCn1c(=O)c2c(ncn2Cc2ccccc2)c2sccc21 [Compound 13, 3-benzyl-5-n-propylthieno [3,2-b]-3H-imidazo [4,5-d]pyridine-4(5H)-one]",–,68.3
"CC(C)n1c(=O)c2c(ncn2C)c2sccc21 [Compound 7, 5-isopropyl-3-methylthieno[3,2-b]-3H-imidazo[4,5-d]pyridine-4(5H)-one]",3.53,29.5
"CC(C)n1c(=O)c2ncn(C)c2c2sccc21 [Compound 9, 5-isopropyl-1-methylthieno[3,2-b]-1H-imidazo[4,5-d]pyridine-4(5H)-one]",7.29,23.8
"CCn1c(=O)c2c(ncn2C)c2sccc21 [Compound 17, 5-ethyl-3-methylthieno[3,2-b]-3H-imidazo[4,5-d]pyridine-4 (5H)-one]",10.5,47

# Source: patent US5342843A, “Thienoimidazoppyridone derivatives” (Kyowa Hakko Kogyo Co., Ltd., priority 1991, dated 1994)
